Measurements: EP3403652A1, “PREVENTION AND TREATMENT OF FIBROBLAST GROWTH FACTOR 23 (FGF23)-ASSOCIATED DISORDERS INCLUDING CHRONIC KIDNEY DISEASE (CKD)” (Veterinärmedizinische Universität Wien, priority 2017, dated 2018)

Key:
renal distal tubules [1] = assay: Intracellular Na+ imaging by 2-photon microscopy in SBFI-loaded live kidney slices ex vivo; type: cell-based, mice; settings: for rFGF23-induced increase in intracellular Na^+ fluorescence (distal tubular Na^+ uptake): co-treatment with 200 ng/ml rFGF23, 2 h, iFGFR pan 120 nM; for decrease of SFBI fluorescence intensity in distal tubules: rFGF23-treated WT kidney slices, CTZ 10 µM
Experimental: (§1) The preparation of kidney slices for ex vivo experiments was performed as described in Andrukhova O et al. (EMBO J., 2014. 33, 229-246). Longitudinal 200-µm-thick live slices from freshly isolated kidneys of 3-month-old male WT and Klotho/VDR mice were prepared using a Leica VT1000 Vibratome (Leica Microsystems), and were used for ex vivo treatment with various substances as described below.
(§2) Longitudinal 200-µm-thick live slices of freshly isolated kidneys were prepared using a Leica VT1000 Vibratome (Leica Microsystems). For Na^+ imaging, the kidney slices of WT and Klotho/VDR mice were incubated for 60 min at 37°C with 2 µM of the sodium-sensitive dye SBFI (Molecular Probes), diluted in DMSO (Merck Millipore International) and 20% Pluronic (Merck Millipore International). For Ca^2+ imaging, the kidney slices were incubated for 30 min at 37°C with 2 µM of the calcium-sensitive dye Fluo-4 (Molecular Probes), diluted in DMSO and 20% Pluronic. Thereafter, the slices were washed two times for 20 min each in 0.1M PBS, and were subsequently incubated in vitro with vehicle (PBS), rFGF23 R176/179Q [(100 or 200 ng/ml) kindly provided by Amgen Inc., Thousand Oaks, CA, USA], PD173074 (Sigma-Aldrich) (10 nM for inhibiting FGFR1 and 25 nM for inhibiting FGFR1 and 3), pan FGFR inhibitor [(120 nM) FIIN1 hydrochloride, Tocris Bioscience, Bristol, UK)], WNK signalling inhibitor Closantel (30 ng/mL, generous gift of Dario R. Alessi) alone or combined at 37°C, 5% CO2 / 95% air humidified atmosphere for 2 h. […] For visualization of intracellular Na^+ and Ca^2+ content, SBFI or Fluo-4 were excited by a Ti:sapphire laser (Chameleon, Coherent Inc.) at 820 nm. Images (512 × 512 pixels) were acquired every 30 sec at a depth of 60 - 80 µm. Fluorescence images were analyzed using Image J software. The whole epithelial layer of the distal tubules was selected by manually drawing the region of interest (ROI) to quantify intracellular Na^+ and Ca^2+ levels. Fluorescence intensity was quantified in 4-9 ROIs per image, and the ratio between the fluorescence intensity and the ROI area was calculated for each tubule. This ratio was used for all subsequent calculations.
(§3) To gain more insight into the functional role of the rFGF23-induced increase in distal renal tubular ion channel expression and the FGF receptors involved, we performed intracellular Ca^2+ and Na^+ imaging by 2-photon microscopy in Fluo-4- or SFBI-loaded and subsequently rFGF23-treated (100 or 200 ng/ml for 2 h), 200-µm-thick renal slices prepared from WT and Klotho/VDR mice.
(§4) In this example it was assessed whether the Klotho-independent FGF23 signalling pathway is mediated through FGFR3 and/or 4, given that FGFR2 expression was low in distal renal tubules (Figure 12A). To dissect between the latter receptors, Klotho/VDR kidney slices were treated with rFGF23 alone or in combination with an FGFR1/FGFR3 inhibitor and the WNK signalling inhibitor closantel.

SPAK = SPAK (Homo sapiens, UniProt Q9UEW8); settings: dose-dependent manner; literature (Yamada et al. 2016; Mori et al. 2013); cited from earlier work
WNK-SPAK binding = WNK-SPAK binding (Homo sapiens, UniProt Q9UEW8); settings: literature (Mori et al. 2013); cited from earlier work
OSR1 = settings: dose-dependent manner; literature (Yamada et al. 2016); cited from earlier work
renal distal tubules [2] = assay: Intracellular Ca2+ imaging by 2-photon microscopy in Fluo-4-loaded live kidney slices ex vivo; type: cell-based, mice; settings: co-treatment with 200 ng/ml rFGF23, 2 h, iFGFR pan 120 nM
Experimental: as §1, §2, §3, §4

TRPV5 = TRPV5 (Homo sapiens, UniProt Q9NQA5); settings: 1 µM; literature (Nilius et al. 2001); cited from earlier work
Sequence of TRPV5 (Q9NQA5 whole entry, species assumed): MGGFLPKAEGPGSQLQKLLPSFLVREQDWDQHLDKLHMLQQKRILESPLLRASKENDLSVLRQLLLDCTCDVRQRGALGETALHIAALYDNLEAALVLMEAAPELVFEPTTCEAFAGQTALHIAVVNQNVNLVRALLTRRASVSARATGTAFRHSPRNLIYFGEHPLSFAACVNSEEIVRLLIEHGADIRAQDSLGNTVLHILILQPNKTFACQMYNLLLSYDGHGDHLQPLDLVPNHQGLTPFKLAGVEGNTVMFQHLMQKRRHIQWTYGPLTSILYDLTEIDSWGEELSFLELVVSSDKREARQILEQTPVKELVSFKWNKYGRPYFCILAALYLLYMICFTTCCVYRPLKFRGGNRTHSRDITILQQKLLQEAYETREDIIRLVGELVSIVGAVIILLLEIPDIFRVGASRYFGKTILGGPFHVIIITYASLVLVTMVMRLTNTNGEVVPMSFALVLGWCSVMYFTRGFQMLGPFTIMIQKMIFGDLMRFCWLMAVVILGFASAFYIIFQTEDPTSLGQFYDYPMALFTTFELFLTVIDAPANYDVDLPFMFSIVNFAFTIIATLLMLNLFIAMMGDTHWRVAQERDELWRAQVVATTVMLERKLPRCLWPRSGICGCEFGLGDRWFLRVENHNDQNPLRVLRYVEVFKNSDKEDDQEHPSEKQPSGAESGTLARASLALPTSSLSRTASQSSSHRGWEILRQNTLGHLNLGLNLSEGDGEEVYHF

TRPV6 = target: T1, TRPV6 (Homo sapiens, UniProt Q9H1D0); settings: 1 µM; literature (Nilius et al. 2001); cited from earlier work
T1 sequence (Q9H1D0 1-765): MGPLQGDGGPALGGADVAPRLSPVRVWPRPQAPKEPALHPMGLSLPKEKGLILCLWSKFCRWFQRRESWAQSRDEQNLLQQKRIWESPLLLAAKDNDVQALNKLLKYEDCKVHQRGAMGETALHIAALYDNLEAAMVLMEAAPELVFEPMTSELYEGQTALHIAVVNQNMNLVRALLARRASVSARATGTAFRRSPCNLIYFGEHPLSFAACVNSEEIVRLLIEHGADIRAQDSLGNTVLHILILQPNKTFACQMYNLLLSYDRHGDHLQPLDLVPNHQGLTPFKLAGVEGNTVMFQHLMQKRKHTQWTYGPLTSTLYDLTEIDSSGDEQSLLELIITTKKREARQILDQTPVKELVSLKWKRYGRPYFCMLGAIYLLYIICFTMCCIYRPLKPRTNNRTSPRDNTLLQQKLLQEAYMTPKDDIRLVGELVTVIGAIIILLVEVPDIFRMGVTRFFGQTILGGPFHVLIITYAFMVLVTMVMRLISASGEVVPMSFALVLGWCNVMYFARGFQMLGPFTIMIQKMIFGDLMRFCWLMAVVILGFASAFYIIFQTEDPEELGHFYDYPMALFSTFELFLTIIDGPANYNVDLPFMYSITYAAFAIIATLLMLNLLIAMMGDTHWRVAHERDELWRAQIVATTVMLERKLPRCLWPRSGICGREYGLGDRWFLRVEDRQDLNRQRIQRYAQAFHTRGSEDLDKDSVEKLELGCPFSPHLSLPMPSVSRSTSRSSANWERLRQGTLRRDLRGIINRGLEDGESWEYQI

5/6 Nx C57BL/6 mice = assay: 5/6 nephrectomy with angiotensin II infusion via osmotic mini-pumps; type: in vivo; settings: AngII- vs. vehicle-treated 5/6-Nx mice, 4 and 8 weeks postsurgery
Experimental: The 5/6 nephrectomy (5/6 Nx) was performed in two stages (Leelahavanichkul A et al., Kidney Int. 78, 2010. 1136-1153) under isoflurane anesthesia (Fig. 1A). Pain was managed by s.c. injections of buprenorphine, metamizol and meloxicam. Additionally, the animals were treated for 3 days postsurgery with the analgesic piritramid via the drinking water, starting 6 h postsurgery. At the first stage (wk -1), the left kidney was decapsulated to avoid ureter and adrenal damage, and the upper and lower poles were partially resected via a left flank incision. Bleeding was controlled by microfibrillar collagen hemostasis (Avitene, Davol, Cranston, RI). The upper and lower poles were weighed. One week later, the entire right kidney was removed via a right flank incision and weighed. Animals with insufficient kidney resection as determined by a ratio of < 0.55 for the removed left kidney weight to the removed right kidney weight were euthanized. In the Sham surgery control mice, a left flank incision was performed at step 1, both poles of kidney were identified, then the flank incision was closed; a subsequent right flank incision was performed at step 2; the right renal artery was identified, then the flank incision was closed. After each flank incision, muscles and skin were repositioned and sewed. Mortality was tracked throughout the study. Necropsy was not performed on animals that died early.
Angiotensin II (Ang II) 0.75 µg/kg/min (Sigma) in physiological saline or vehicle was infused by subcutaneous osmotic mini-pumps (Alzet model 1004, Cupertino, CA) (Leelahavanichkul A et al., Kidney Int. 78, 2010. 1136-1153). The osmotic minipumps were inserted subcutaneously at the back under isoflurane anesthesia at 5 days after right NX or Sham surgery (Fig. 1A).
In order to test susceptibility of C57BL/6 mice to 5/6 nephrectomy (5/6-Nx)- and angiotensin II (AngII) infusion-induced CKD, 5/6-Nx was performed and osmotic minipumps continuously releasing vehicle or AngII were thereafter implanted into male wild-type (WT) C57Bl/6 mice, which were then monitored over 8 weeks after 5/6-Nx. All mice were maintained on rescue diet.

[3] = Klotho/VDR kidney slices, closantel 30 ng/mL, BF 15 µM, PD173074 10 nM (iFGFR1) or 25 nM (FGFR1/3)
[4] = Klotho/VDR kidney slices, ruthenium red 10 µM, closantel 30 ng/mL, PD173074 10 nM (iFGFR1) or 25 nM (FGFR1/3)
[5] = WT kidney slices, ruthenium red 1 µM, iFGFR1 PD173074 10 nM
[6] = WT kidney slices, iFGFR1 PD173074 10 nM

With `CCCCNc1cc(C(=O)O)cc(S(N)(=O)=O)c1Oc1ccccc1` [BF, bumetanide] the “rFGF23-induced increase in intracellular Na^+ fluorescence (distal tubular Na^+ uptake)” value (renal distal tubules [1]; [3]) was “inhibited” and the “decrease of SFBI fluorescence intensity in distal tubules” value (renal distal tubules [1]; BF 15 µM) was “approximately 50%”.
With `NS(=O)(=O)c1cc2c(cc1Cl)N=CNS2(=O)=O` [CTZ, chlorothiazide] the “decrease of SFBI fluorescence intensity in distal tubules” value (renal distal tubules [1]; BF 15 µM) was “approximately 50%”.
In the case of `CCOc1ccc2nc3cc(NCc4ccco4)ccc3c(N)c2c1` [STOCK2S-26016, 7-Ethoxy-N3-(2-furanylmethyl)-3,9-acridinediamine], the SPAK phosphorylation (SPAK) is given as “preventing” and the WNK-SPAK binding (WNK-SPAK binding) is given as “preventing”.
For `CC(C)(C)NC(=O)c1cncn1C1CCN(c2ccc(-c3nnc(C(F)(F)F)o3)cn2)CC1` [WNK463, N-tert-butyl-3-[1-[5-[5-(trifluoromethyl)-1,3,4-oxadiazol-2-yl]pyridin-2-yl]piperidin-4-yl]imidazole-4-carboxamide], the SPAK phosphorylation (SPAK) is listed as “decreases” and the OSR1 phosphorylation (OSR1) is listed as “decreases”.
In the case of `CCN(CC)CCCCNc1ncc2cc(-c3cc(OC)cc(OC)c3)c(NC(=O)NC(C)(C)C)nc2n1` [iFGFR1, PD173074], the “rFGF23-induced increase in intracellular Ca^2+ fluorescence (distal tubular Ca^2+ uptake)” value (renal distal tubules [2]; [4]) was “no effect”, the “rFGF23-induced increase in intracellular Ca^2+ fluorescence (distal tubular Ca^2+ uptake)” value (renal distal tubules [2]; Klotho/VDR kidney slices, ruthenium red 10 µM, closantel 30 ng/mL, PD173074 10 nM (iFGFR1) or 25 nM (FGFR1/3), listed as FGFR1/3 inhibitor) was “partially blocked” and the “rFGF23-induced increase in intracellular Ca^2+ fluorescence (distal tubular Ca^2+ uptake)” value (renal distal tubules [2]; [5]) was “largely blocked”. The “rFGF23-induced increase in intracellular Na^+ fluorescence (distal tubular Na^+ uptake)” value (renal distal tubules [1]; [3]) was “no effect”, the “rFGF23-induced increase in intracellular Na^+ fluorescence (distal tubular Na^+ uptake)” value (renal distal tubules [1]; Klotho/VDR kidney slices, closantel 30 ng/mL, BF 15 µM, PD173074 10 nM (iFGFR1) or 25 nM (FGFR1/3), listed as FGFR1/3 inhibitor) was “completely blocked” and the “rFGF23-induced increase in intracellular Na^+ fluorescence (distal tubular Na^+ uptake)” value (renal distal tubules [1]; [6]) was “largely blocked”.
For `C=CC(=O)Nc1cccc(CN2C(=O)N(c3c(Cl)c(OC)cc(OC)c3Cl)Cc3cnc(NCCCCN(CC)CC)nc32)c1.Cl` [iFGFR pan, FIIN1 hydrochloride], the “rFGF23-induced increase in intracellular Ca^2+ fluorescence (distal tubular Ca^2+ uptake)” value (renal distal tubules [2]; [4]) was “completely blocked”, the “rFGF23-induced increase in intracellular Ca^2+ fluorescence (distal tubular Ca^2+ uptake)” value (renal distal tubules [2]; [5]) was “completely blocked” and the “rFGF23-induced increase in intracellular Na^+ fluorescence (distal tubular Na^+ uptake)” value (renal distal tubules [1]; [3]) was “completely blocked”. For the same compound, the “rFGF23-induced increase in intracellular Na^+ fluorescence (distal tubular Na^+ uptake)” value (renal distal tubules [1]; [6]) was “completely blocked”.
In the case of `N.N.N.N.N.N.N.N.N.N.N.N.N.N.[Cl-].[Cl-].[Cl-].[Cl-].[Cl-].[Cl-].[O-2].[O-2].[Ru+3].[Ru+3].[Ru+4]` [ruthenium red], the “rFGF23-induced increase in intracellular Ca^2+ fluorescence (distal tubular Ca^2+ uptake)” value (renal distal tubules [2]; [4]) is given as “antagonize”, the “rFGF23-induced increase in intracellular Ca^2+ fluorescence (distal tubular Ca^2+ uptake)” value (renal distal tubules [2]; [5]) is given as “reversed” and the TRPV5 channel function (TRPV5) is given as “block”. For the same compound, the TRPV6 channel function (TRPV6) was “not”.
With “Angiotensin II (DRVYIHPF; Angiotensin-2; UniProt P01019 25-32, looked up) [AngII, Angiotensin II (Sigma) infused by subcutaneous osmotic mini-pumps]” the GFR (5/6 Nx C57BL/6 mice; 0.75 µg/kg/min s.c. infusion) was “no significant differences”, the azotemia (5/6 Nx C57BL/6 mice) was “no significant differences” and the “mean arterial pressure measured by arterial catheterization” value (5/6 Nx C57BL/6 mice) was “no significant differences”. The proteinuria (5/6 Nx C57BL/6 mice) was “no significant differences”.
